Results on one molecule are retold here after patent publication US11129845B2, “Compositions and methods for the delivery of nucleic acids” (CASE WESTERN RESERVE UNIVERSITY, priority 2014, dated 2021).

Data set [1] is described as follows: Agarose gel retardation (siRNA loading). In kind it is physicochemical. Here is the method: The ability of ECO to complex and condense siRNA was assessed by gel electrophoresis. […] The gel was submerged in 0.5×Tris/Borate/EDTA (TBE) buffer and run at 100 V for 25 minutes. Free siRNA was run as the control. SiRNA bands were visualized using an AlphaImager ultraviolet imaging system (Biosciences). […] Following incubation, samples were loaded onto a 1% agarose gel containing ethidium bromide and run in the same manner as described. […] At each intermittent time point, aliquots were taken and stored at −80° C. After the final aliquot was taken at 24 hours, samples were incubated for 30 minutes with heparin at a heparin/siRNA (w/w) ratio of 5 to release the complexed siRNA cargo and each sample was loaded on the 1% agarose gel and run as described above. Free siRNA was also incubated in 50% serum for 0.5, 1, 6, or 24 hours and stored and run on the gel in a similar manner.

For another data set, the system named is luciferase reporter. Nature of the data set: Luciferase reporter silencing in HT29-Luc cells. The settings on record: for Luciferase expression: 100 nM siRNA. The format is cell-based, human. Here is the method: Gene silencing efficiency was investigated in the HT29-Luc cell line by analyzing the expression of a luciferase reporter after anti-Luc siRNA therapy. To perform this study, cancer cells were seeded in 12 well plates at a density of 20,000 cells per well. Transfections were conducted in fresh serum-free media with 100 nM of siRNA when the cells were 25% confluent. The cells continued to grow in normal growth media for an additional 48 and 72 h, at which point they were rinsed twice with PBS and lysed for protein collection. The lysis buffer was a component of a Promega Luciferase Assay kit designed for measuring luciferase expression in the cell lysate. Equally important, the lysis buffer was compatible with the BCA protein assay so that we were able to normalize the luciferase expression in our samples with total protein content. For this silencing study, all synthesized carriers were evaluated at N/P ratios of 8, 10, 12, 14, 16, 18, and 20 to determine the best transfection formulation. Relative luciferase expression was determined for each trial using a SpectraMax luminometer upon the addition of a light-inducing luciferin substrate to the collected protein.
The RNAi capabilities of each carrier were investigated by analyzing the silencing of a luciferase (Luc) reporter in HT29 cancer cells after anti-Luc siRNA therapy. To perform this study, we seeded HT29-Luc cells in 12 well plates at a density of 20,000 cells per well. When 25% confluency, the cells were incubated with fresh serum-free transfection media containing nanoparticles at a dose of 100 nM siRNA. After 4 hours, the media was replaced with fresh complete growth media, so that the cells could continue to grow for an additional 48-72 hours, at which point they were lysed for protein collection. The lysis buffer was compatible with the BCA protein assay so that we could normalize luciferase expression in our samples. Negative controls included cells that were treated with 1) particles encapsulating non-specific siRNA, 2) naked anti-Luc siRNA, or 3) plain serum-free media. Luciferase expression was determined using a Spectra Max luminometer upon the addition of a light-inducing substrate to the collected protein. A similar knockdown experiment was also conducted in non-cancerous CHO cells expressing a GFP reporter. Flow cytometry was utilized to assess the silencing efficiency of the ECO and ECL delivery systems in this cell line. Cytotoxicity of the carriers 48 hours post-transfection was also investigated in both cell lines using an MTT colorimetric assay. […] These RNAi silencing levels surpassed those obtained with a Lipofectamine RNAiMax commercial transfection agent.
(In a reporter assay the amount or activity of a reporter protein is the signal.)

Data set [2] can be described thus: Ribogreen siRNA entrapment efficiency of ECO/siRNA nanoparticles. In kind it is physicochemical. The text has this: A Ribogreen assay (Molecular Probes) was used to quantify the entrapment efficiency of siRNA within the ECO/siRNA nanoparticles. […] Free siRNA following particle formation was detected using a SpectraMax microplate reader (Molecular Devices) with an excitation of 500 nm and emission of 525 nm.

For a further data set, the system named is CHO-GFP cells. The format is cell-based, Chinese hamster. As to the method:
Cytotoxicity of the carriers was investigated using an MTT colorimetric assay measuring cellular metabolic activity (Invitrogen). The transfection procedure was identical to that presented for the reporter knockdown studies above, except for the fact that 96 well plates were utilized instead, and seeded with 10,000 cells per well. After transfection, the cells were allowed to grow for an additional 48 h. At that point, they were incubated with MTT for 4 h, followed by an additional 4 hour incubation with an SDS-HCl solution to dissolve any insoluble formazan crystals formed by the reduction of MTT by NAD(P)H-dependent enzymes in the cells. The absorbance of each sample was measured at 570 nm using a SpectraMax microplate reader. Cellular viability was calculated by averaging the signal intensities over three replicates and then normalizing the results relative to the negative control data.
The RNAi capabilities of each carrier were investigated by analyzing the silencing of a luciferase (Luc) reporter in HT29 cancer cells after anti-Luc siRNA therapy. To perform this study, we seeded HT29-Luc cells in 12 well plates at a density of 20,000 cells per well. […] Luciferase expression was determined using a Spectra Max luminometer upon the addition of a light-inducing substrate to the collected protein. […]

With `CCCCCCCC/C=C\CCCCCCCC(=O)N[C@@H](CS)C(=O)NCCNC(=O)CCN(CCN)CCC(=O)NCCNC(=O)[C@H](CS)NC(=O)CCCCCCC/C=C\CCCCCCCC` [ECO, (1-aminoethyl)iminobis[N-(oleicylcysteinyl-1-amino-ethyl)propionamide]], in data set [1], the “N/P ratio at which complexed siRNA was completely prevented from migrating through the gel” value is no less than 14. Moreover, the “N/P ratio at which no siRNA signal was observed in the loading well” value in data set [1] was no less than 18. For the same molecule, the “luciferase knockdown (transfection efficiency)” value in the data set on luciferase reporter (HT29, N/P 18, 72 h post-transfection) was 77.5±3.3%. In the data set on luciferase reporter (HT29-Luc, N/P ratio of 18, over 72 hours), the silencing efficiency is given as 80%. In addition, the Luciferase expression stood at 33.5±3.82% in the data set with luciferase reporter (HT29-Luc, N/P=12, 72 h) and 22.7±3.31% with luciferase reporter (HT29-Luc, N/P=18 (Lipofectamine per manufacturer), 72 h). Also, the results for the “siRNA entrapment (RiboGreen)” value in data set [2] (N/P=6) and in data set [2] (N/P=20) were 82.1±4.3% and 98.7±5.0%, respectively. The “cell viability (MTT)” value in the data set with CHO-GFP cells was “greater than 85%”.
